Experimental findings from patent US20190145962A1, “PEPTIDE FOR […] OF AMYLOSPHEROIDS (ASPD), AND […] SCREENING METHOD” (TAO HEALTH LIFE PHARMA CO., LTD., priority 2016, published 2019) are described below.

Experiment [1] has as its system binding of ASPD to neurons (synthetic ASPD, primary cultured rat hippocampal neurons). Kind of experiment: Evaluation of ASPD-inhibitory peptides: inhibition of binding of ASPD to cultured neurons (immunofluorescence imaging, titer). The format is cell-based. Conditions: for ASPD-binding inhibitory ability (titer) compared with known ASPD neutralizing peptide 01 (HFNW): qualitative comparison with peptide 01, FIG. 3 and FIG. 4; for effect of inhibiting binding of ASPD to neurons: qualitative, evaluation of section 1. The method, then: Evaluation of peptides that inhibits binding of ASPD to neurons was performed by the following method.
Step 1: Adding a liquid mixture containing peptide and ASPD, which have been mixed together and then incubated, to cultured mature neurons.
Step 2: Degenerating (immobilizing) the neurons.
Step 3: Immunostaining the neurons and the ASPD, respectively, to perform imaging.
Step 4: Analyzing the image to quantify the ASPD bound to the neurons.
Step 5: Evaluating the peptides using the amount of the ASPD bound and/or an analytical value obtained therefrom.
Steps 1 to 3 were performed as follows:
A liquid mixture of peptide and synthetic ASPD was incubated at 4° C. for 15 minutes to pretreat the ASPD and this liquid mixture was added to primary cultured rat hippocampal neurons cultured in a 96-well plate.
After incubation at 37° C. for 15 minutes in a CO2 incubator, the wells were washed with PBS. Then, 2% paraformaldehyde (50 μl/well) was added thereto for immobilization performed for 20 minutes at 37° C. and further 4% paraformaldehyde (50 μl/well) was added thereto for immobilization performed for 20 minutes at 37° C. After washing and blocking, a primary antibody solution containing anti-ASPD antibody (mASD3) and anti-MAP2 antibody (trade name: sc-20172, manufactured by SANTACRUZ) was added, which then was left overnight. After washing, a secondary antibody solution containing Alexa Fluoro (trademark) 568 anti-mouse antibody (trade name: A11031, manufactured by life technologies), Alexa Fluoro (trademark) 488 anti-rabbit antibody (trade name: A11034, manufactured by life technologies), and DAPI (trade name: D523, manufactured by Dojindo) was added and then fluorescence microscopic observation was performed.
Subsequently, steps 4 to 5 were performed as follows: From the microscopic observation data, a calibration curve as shown in FIG. 2 was drawn, an approximate curve was created within a range where linearity was maintained, and then ED50 was calculated. Using, as an indicator, “titer” that is defined by the ratio of ED50 of the ASPD treated with peptide to ED50 of the ASPD alone, the ASPD-binding inhibitory ability of peptide was evaluated.
Titer=ED50[ASPD+Peptide]/ED50[ASPD]

The target in a further experiment is T1, Synthetic ASPD (Homo sapiens, UniProt P05067).
T1 construct: can be produced by slowly rotating a liquid containing Aß
Kind of experiment: Surface plasmon resonance (SPR), synthetic ASPD solid-phased on a chip, peptide as analyte. To be noted: class symbols, key not given; the dissociation constant (KD) was determined but is not given. In kind it is binding. The method, then:
Synthetic ASPD were solid-phased on a chip and each peptide shown in Table 3 below was allowed to flow as an analyte. Then the dissociation constant (KD) was determined by surface plasmon resonance (SPR).
On the technique in general: In SPR one partner is held on a chip, and binding of the other changes the refractive index at the surface.

T1 sequence (P05067 672-713 limits assumed): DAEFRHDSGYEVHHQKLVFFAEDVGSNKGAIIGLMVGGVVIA

Take HANW [Peptide 10]: the “ASPD-binding inhibitory ability (titer) compared with known ASPD neutralizing peptide 01 (HFNW)” value in experiment [1] is recorded as “comparable to that of known ASPD neutralizing peptide 01 (HFNW)”.
In the case of HFDW [Peptide 18], the “effect of inhibiting binding of ASPD to neurons” value in experiment [1] is “showed the effect of inhibiting binding of ASPD to neurons”.
Consider HFKW [Peptide 22], for which the “ASPD-binding inhibitory ability (titer) compared with known ASPD neutralizing peptide 01 (HFNW)” value in experiment [1] was “superior”.
Consider “HFNW [Peptide 01, known ASPD neutralizing peptide, reference compound]”, for which, in experiment [1], the “effect of inhibiting binding of ASPD to neurons” value is on record as “showed the effect of inhibiting binding of ASPD to neurons”.
In the case of HFRW [Peptide 16], the “ASPD-binding inhibitory ability (titer) compared with known ASPD neutralizing peptide 01 (HFNW)” value in experiment [1] is on record as “superior”.
For the substance HFWW [Peptide 15], the “effect of inhibiting binding of ASPD to neurons” value in experiment [1] was “showed the effect of inhibiting binding of ASPD to neurons”.
With HHNW [Peptide 05], in experiment [1], the “ASPD-binding inhibitory ability (titer) compared with known ASPD neutralizing peptide 01 (HFNW)” value is listed as “comparable to that of known ASPD neutralizing peptide 01 (HFNW)” and the “effect of inhibiting binding of ASPD to neurons” value is reported as “showed the effect of inhibiting binding of ASPD to neurons”.
Turning to HNNW [reference compound], the “effect of inhibiting binding of ASPD to neurons” value in experiment [1] was “could not inhibit the binding of ASPD to neurons”. In the experiment with Synthetic ASPD, the “Results of SPR (Ability to Bind to ASPD)” value was “No binding was found”.
For HPNW [reference compound] the same measures were “could not inhibit the binding of ASPD to neurons” and “No binding was found”.
For HTNW [Peptide 09], in experiment [1], the “ASPD-binding inhibitory ability (titer) compared with known ASPD neutralizing peptide 01 (HFNW)” value was “comparable to that of known ASPD neutralizing peptide 01 (HFNW)” and the “effect of inhibiting binding of ASPD to neurons” value is reported as “showed the effect of inhibiting binding of ASPD to neurons”.
As for HVNW [Peptide 11], the “ASPD-binding inhibitory ability (titer) compared with known ASPD neutralizing peptide 01 (HFNW)” value in experiment [1] was “comparable to that of known ASPD neutralizing peptide 01 (HFNW)”.
Consider HYNW [Peptide 08], for which the “effect of inhibiting binding of ASPD to neurons” value in experiment [1] was “showed the effect of inhibiting binding of ASPD to neurons”.
